Test results: patent publication US4432973A, “Benzoyl- and α-hydroxybenzyl-phenyl-glycosides and application thereof in therapeutics” (Societe de Recherches Industrielles (S.O.R.I.), priority 1980, dated 1984)

Key:
[1] = Anti-ulcer activity: ulcer caused by aspirin; format: in vivo, rat (male Wistar); conditions: aspirin 192 mg/kg per os, standardised to control batch and cimetidine (index 1)
Protocol: The experiment is carried out on male Wistar rats of 180 to 200 g. The products to be tested are administered at 100 mg/kg I.P. (unless indicated to the contrary in Table IV).
At t=0, the rats are made to fast and a first administration of the product to be tested is made.
At t=18 hours, 2 ml of an ulcer-forming suspension with 192 mg of aspirin/kg are administered per os then a second administration of the product to be tested is made.
At t=22 hours, the animals are sacrificed and the ulcers are marked as follows: small point-like ulcers: mark 1 more extensive ulcers: mark 3 highly extensive or very deep ulcers: mark 9
This marking is standardised with respect to a control batch and to cimetidine (a reference product) to which index 1 has been allocated.

[2] = Veinous thrombosis: veinous anti-thrombus activity; format: in vivo; conditions: 100 mg/kg I.P., 4 to 5 hours after administration; for inhibition in vivo at 100 mg/kg: Rattus norvegicus, ip, read-out: Diminution of veinous thrombus
Protocol: The technique used is similar to the one described by Peterson-Zucker in Thrombo.Diath.Haemorh. 23, 1, (1970).
An occlusive thrombus is created in the […] vena cava of a rat by the combined action of an endothelial alteration and a veinous stasis for 15 mins. and 4 to 5 hours after administration of the product to be tested (100 mg/kg I.P.).

[3] = Acute toxicity in the mouse by the I.P. route; format: in vivo; conditions: for LD50: read-out: DL-50 (lethal dose involving the death of half of the animals)
Description: The acute toxicity was studied in the mouse by the I.P. route. It is expressed in the form of DL-50 (lethal dose involving the death of half of the animals) or DL-0 (maximum non-lethal dose).

[4] = Anti-hypoxic activity: survival to hypoxia (nitrogen-oxygen 95:5); format: in vivo, mouse (Swiss male); conditions: I.P., 1/10th of LD-50 or 100 mg/kg when LD-0 ≥ 800 mg/kg; up to 15 minutes; mouse
Protocol: The experiment is carried out on batches of 20 Swiss male mice weighing from 20 to 30 g. Each product to be tested is administered to the mice by intraperitoneal route at a dose corresponding to 1/10th of the LD-50 or at a dose of 100 mg/kg when the LD-0 is higher than or equal to 800 mg/kg. The mice are placed in a nitrogen-oxygen (95:5) v/v atmosphere. The survival time of the mice is then measured up to 15 minutes maximum.
The results shown in Table VII are expressed in percentage of survival with respect to a non-treated control batch and a batch treated with an anti-hypoxic reference product [specialty known under the trade name of "Duxil" and which is constituted by a mixture of Almitrine bis-methanesulfonate and of Raubasine in the weight ratio 3:1], the anti-hypoxic reference product being administered at the dose of 18 mg/kg I.P.

| Compound | Ulcer index ([1]; 100 mg/kg I.P.) | inhibition in vivo at 100 mg/kg [2] [%] | DL-0 (maximum non-lethal dose) ([3]; I.P.) [mg/kg IP] | Survival (survival percentage to hypoxic aggression) [4] | DL-0 (maximum non-lethal dose) ([3]; in vivo, ip) [mg/kg IP] | other results |
| --- | --- | --- | --- | --- | --- | --- |
| CC(=O)O[C@@H]1[C@@H](OC(C)=O)[C@H](Oc2ccc(C(=O)c3ccc(Br)cc3)cc2)OC[C@H]1OC(C)=O [Example 75] | 0.32 | 30 to 49 | > 800 |  |  |  |
| CC(=O)O[C@@H]1[C@@H](OC(C)=O)[C@H](Oc2ccc(C(=O)c3ccccc3C)cc2)OC[C@H]1OC(C)=O [Example 69] | 0.78 | 30 to 49 |  |  |  | LD50 ([3]; in vivo, ip, I.P.): 900 mg/kg |
| CC(=O)O[C@@H]1[C@@H](OC(C)=O)[C@H](Oc2ccc(C(=O)c3ccccc3Cl)cc2)OC[C@H]1OC(C)=O [Example 70] | 0.56 | 30 to 49 | > 800 |  |  |  |
| Nc1ccccc1C(=O)c1ccc(O[C@@H]2OC[C@@H](O)[C@H](O)[C@H]2O)cc1 [Example 7] |  | ≥ 50 | > 800 |  |  |  |
| Cc1cc(C(=O)c2ccc([N+](=O)[O-])cc2)cc(C)c1O[C@@H]1OC[C@@H](O)[C@H](O)[C@H]1O [Example 23] | 0.52 | 30 to 49 |  |  |  | LD50 ([3]; in vivo, ip, I.P.): 750 mg/kg |
| O=C(c1ccc(O[C@@H]2OC[C@@H](O)[C@H](O)[C@H]2O)cc1)c1ccccc1[N+](=O)[O-] [Example 6] | 0.45 | 30 to 49 |  |  |  | LD50 ([3]; in vivo, ip, I.P.): 600 mg/kg |
| Cc1cc(C(=O)c2ccc([N+](=O)[O-])cc2)ccc1O[C@@H]1OC[C@@H](O)[C@H](O)[C@H]1O [Example 29] |  | 30 to 49 | > 800 |  |  |  |
| O=[N+]([O-])c1ccc(C(O)c2ccc(O[C@@H]3OC[C@@H](O)[C@H](O)[C@H]3O)cc2)cc1 (single isomer, unassigned) [Example 98, [4-(4-nitro-α-hydroxybenzyl)-phenyl]-β-D-xylopyranoside] |  | ≥ 50 |  |  |  |  |
| O=[N+]([O-])c1cccc(C(O)c2ccc(O[C@@H]3OC[C@@H](O)[C@H](O)[C@H]3O)cc2)c1 (some centres unmarked) [Example 87] | 0.35 | ≥ 50 |  |  |  | LD50 ([3]; in vivo, ip, I.P.): > 600 mg/kg |
| COc1ccc(C(=O)c2ccc(O[C@@H]3OC[C@@H](OC(C)=O)[C@H](OC(C)=O)[C@H]3OC(C)=O)cc2)cc1 [Example 81] | 0.64 | 30 to 49 | > 800 |  |  |  |
| CC(=O)O[C@@H]1[C@@H](OC(C)=O)[C@H](Oc2ccc(C(=O)c3ccc(N)cc3)cc2)OC[C@H]1OC(C)=O [Example 77] |  | 30 to 49 | > 800 |  |  |  |
| CC(=O)N[C@H]1[C@H](Oc2ccc(C(=O)c3ccc([N+](=O)[O-])cc3)cc2)O[C@H](CO)[C@@H](O)[C@@H]1O [Example 44, [4-(4-nitrobenzoyl)-phenyl]-2-(N-acetyl)-β-D-glucosaminide] | 0.385 |  |  | +++ (higher than or equal to 80%) | > 800 |  |
| CC(=O)N[C@H]1[C@H](Oc2c(C)cc(C(=O)c3ccccc3C)cc2C)O[C@H](CO)[C@@H](O)[C@@H]1O [Example 26] | 0.60 |  |  | + (from 30 to 49%) |  | LD50 ([3]; in vivo, ip, I.P.): 700 mg/kg |
| O=[N+]([O-])c1ccc(C(O)c2ccc(O[C@@H]3OC[C@@H](O)[C@H](O)[C@H]3O)cc2)cc1 (single isomer, unassigned) [Example 99, [4-(4-nitro-α-hydroxybenzyl)-phenyl]-β-D-xylopyranoside] |  |  |  |  |  | Diminution of veinous thrombus ([2]; rat): + (inhibition of 30 to 49%) |
| O=C(c1ccccc1)c1ccc(O[C@@H]2OC[C@@H](O)[C@H](O)[C@H]2O)cc1 [Example 18] |  | 30 to 49 |  |  |  | LD50 ([3]; in vivo, ip, I.P.): > 1000 mg/kg |
| OC(c1ccc(O[C@@H]2OC[C@@H](O)[C@H](O)[C@H]2O)cc1)c1ccc(Cl)cc1Cl (some centres unmarked) [Example 86] | 0.50 | 30 to 49 |  |  |  | LD50 ([3]; in vivo, ip, I.P.): > 350 mg/kg |
| CC(=O)N[C@H]1[C@H](Oc2ccc(C(=O)c3ccc(C)cc3)cc2)O[C@H](COC(C)=O)[C@@H](OC(C)=O)[C@@H]1OC(C)=O [Example 112] | 0.68 |  |  | ++ (from 50 to 79%) | > 800 |  |

| Compound | Ulcer index ([1]; 100 mg/kg I.P.) | inhibition in vivo at 100 mg/kg [2] [%] | DL-0 (maximum non-lethal dose) ([3]; I.P.) [mg/kg IP] | Survival (survival percentage to hypoxic aggression) [4] | DL-0 (maximum non-lethal dose) ([3]; in vivo, ip) [mg/kg IP] | other results |
| --- | --- | --- | --- | --- | --- | --- |
| CC(=O)N[C@H]1[C@H](Oc2ccc(C(O)c3ccc(Cl)cc3)cc2)O[C@H](CO)[C@@H](O)[C@@H]1O (some centres unmarked) [Example 100] | 0.35 |  |  | ++ (from 50 to 79%) | > 800 |  |
| CC(=O)O[C@@H]1[C@@H](OC(C)=O)[C@H](Oc2ccc(C(=O)c3ccc(N(C)C)cc3)cc2)OC[C@H]1OC(C)=O [Example 116] | 0.44 |  |  | + (from 30 to 49%) | > 800 |  |
| O=C(c1ccccc1)c1cccc(O[C@@H]2OC[C@@H](O)[C@H](O)[C@H]2O)c1 [Example 45] | 1.11 | 30 to 49 | > 800 |  |  |  |
| OC(c1ccc(O[C@@H]2OC[C@@H](O)[C@H](O)[C@H]2O)cc1)c1ccccc1Cl (some centres unmarked) [Example 88] | 0.39 | ≥ 50 | > 800 |  |  |  |
| O=C(c1ccc(O[C@@H]2OC[C@@H](O)[C@H](O)[C@H]2O)cc1)c1cccc([N+](=O)[O-])c1 [Example 2] | 0.84 | 30 to 49 | > 800 |  |  |  |
| CC(=O)N[C@H]1[C@H](Oc2ccc(C(=O)c3ccc(Cl)cc3)cc2)O[C@H](CO)[C@@H](O)[C@@H]1O [Example 43] | 0.52 |  |  | +++ (higher than or equal to 80%) | > 800 |  |
| CC(=O)N[C@H]1[C@H](Oc2ccc(C(=O)c3ccc([N+](=O)[O-])cc3)cc2)O[C@H](COC(C)=O)[C@@H](OC(C)=O)[C@@H]1OC(C)=O [Example 109] | 0.65 |  |  | ++ (from 50 to 79%) | > 800 |  |
| O=C(c1ccc(Br)cc1)c1ccc(O[C@@H]2OC[C@@H](O)[C@H](O)[C@H]2O)cc1 [Example 4] | 1.04 | 30 to 49 | > 800 |  |  |  |
| Cc1ccccc1C(O)c1ccc(O[C@@H]2OC[C@@H](O)[C@H](O)[C@H]2O)cc1 (some centres unmarked) [Example 89] | 0.88 | ≥ 50 | > 800 |  |  |  |
| O=C(c1ccc(O[C@@H]2OC[C@@H](O)[C@H](O)[C@H]2O)cc1)c1ccccc1Cl [Example 5] |  | ≥ 50 | > 800 |  |  |  |
| O=C(c1ccc(O[C@@H]2O[C@H](CO)[C@@H](O)[C@H](O)[C@H]2O)cc1)c1ccc([N+](=O)[O-])cc1 [Example 19] | 0.74 |  |  | ++ (from 50 to 79%) | > 800 |  |
| COc1cccc(C(=O)c2ccc(O[C@@H]3OC[C@@H](O)[C@H](O)[C@H]3O)cc2)c1 [Example 16] | 0.73 |  |  | + (from 30 to 49%) | > 800 |  |
| CC(=O)O[C@@H]1[C@@H](OC(C)=O)[C@H](Oc2ccc(C(=O)c3ccccc3C)cc2C)OC[C@H]1OC(C)=O [Example 103] | 0.65 |  |  | ++ (from 50 to 79%) | > 800 |  |
| O=C(c1ccc(O[C@@H]2OC[C@@H](O)[C@H](O)[C@H]2O)cc1)c1ccc(C(F)(F)F)cc1 [Example 11] |  |  |  | ++ (from 50 to 79%) | > 800 | Ulcer index ([1]; 200 mg/kg P.O.): 0 |
| CC(=O)OC[C@H]1O[C@@H](Oc2ccc(C(=O)c3ccc([N+](=O)[O-])cc3)cc2)[C@H](OC(C)=O)[C@@H](OC(C)=O)[C@@H]1OC(C)=O [Example 110] | 0.71 |  |  | ++ (from 50 to 79%) | > 800 |  |
| OC(c1ccccc1)c1ccc(O[C@@H]2OC[C@@H](O)[C@H](O)[C@H]2O)cc1 (some centres unmarked) [Example 92] |  | 30 to 49 |  |  |  | LD50 ([3]; in vivo, ip, I.P.): 1400 mg/kg |
